Assay results reported in patent EP4356909A1, “1-(SULFONYL)-N-PHENYLPYRROLIDINE-2-CARBOXAMIDES DERIVATIVES AND USE THEREOF” (Selabtec Sciences, SLU, priority 2022, dated 2024).

Assays:
[1] = system: NFATc activation in HEK 293T cells; test: NFATc activation, 3xNFAT-luc dual-luciferase reporter assay; format: cell-based, human; settings: HEK 293T cells stimulated with ionomycin, PMA and CaCl2; compounds for 2 hours; at least at 100, 50 and 20 µM (Figure 1)
Protocol: To determine the effect of compounds of formula (I) on NFATc activation, HEK 293T cells were transfected with 3xNFAT-luc reporter gene and Renilla-luc plasmid as control of gene transfection. After 24 hours, to activate the cellular CN -NFATc signaling pathway, cells were stimulated with ionomycin (lo), PMA and CaCl2 for 4 h to raise intracellular concentration of calcium. As positive control of inhibition of CN activity, cells were treated with 1 µM of CsA 30 min prior to Io/PMA/CaCl2 stimulation. Then, cells were treated with compounds of formula (I) at several concentrations for 2 hours and light units analyzed following manufacture's protocol of the dual-luciferase reporter assay system (Figure 1, Functional effect of pair related structure compounds on NFATc activation).

[2] = system: RD; test: Proliferation assay, Methyl violet staining; format: cell-based; settings: inhibition values; rhabdomyosarcoma cell line; 5 days of incubation; mean of 6 wells
Protocol: (§1) Compound INK-150.46 (or SLB-605) was assayed against several cancer cell lines in proliferation assays.
(§2) The measurements were taken using an in vitro test to measure cell growth based on Methyl violet staining after 5 days of incubation with the aforementioned drug or control vehicle (DMSO). The procedure was carried out in a 96-well plate. After 1 wash with phosphate-buffered saline (PBS), cells were stained for 20 minutes at room temperature with Methyl violet (0.5 % w/v in water). After 5 washes with PBS, and the addition of acetic acid (10% in water), plates were read in a spectrophotometer at 590 nm. All conditions were tested in 6 independent wells and results expressed as a mean of all replicates.

[3] = system: RH4; test: Proliferation assay, Methyl violet staining; format: cell-based; settings: inhibition values; rhabdomyosarcoma cell line; 5 days of incubation; mean of 6 wells
Protocol: as §1, §2

[4] = system: SHSY5Y; test: Proliferation assay, Methyl violet staining; format: cell-based; settings: inhibition values; neuroblastoma cell line; 5 days of incubation; mean of 6 wells
Protocol: as §1, §2

[5] = system: SKNBE2; test: Proliferation assay, Methyl violet staining; format: cell-based; settings: inhibition values; neuroblastoma cell line; 5 days of incubation; mean of 6 wells
Protocol: as §1, §2

[6] = system: U2OS; test: Proliferation assay, Methyl violet staining; format: cell-based; settings: osteosarcoma (OS) cell line; 5 days of incubation (Figure 7)
Protocol: as §1, §2

Cc1c(Cl)cc(F)cc1S(=O)(=O)N1CCC[C@H]1C(=O)N(Cn1nnc2ccccc21)c1ccccc1 [INK-150.46, (S)-N-((1H-Benzo[d][1,2,3]triazol-1-yl)methyl)-1-((3-chloro-5-fluoro-2-methylphenyl)sulfonyl)-N-phenylpyrrolidine-2-carboxamide]
NFATc activation [1]: strongly inhibits NFATc activation | Effect over RD (%) [2]: 75% | Effect over RH4 (%) [3]: 78.1% | Effect over SHSY5Y (%) [4]: 48.8% | Effect over SKNBE2 (%) [5]: 59.5% | inhibitory effect over U2OS (proliferation) [6]: inhibitory effect
